Legend:
[1] = system: M2 versus M3 muscarinic receptor subtype; conditions: cited from earlier work
[2] = system: canine model, vagal stimulation; assay: Canine arrhythmia model: ERP shortening and AF induced by vagal stimulation; format: in vivo; conditions: 20 microgram/kg single iv, 10-15 minutes after administration
Description: Canine Arrhythmia Model. […] Bioorg. Med. Chem. 2007, 15, 2312-2321), was evaluated for its ability to decrease effective refractory period and atrial fibrillation induced by vagal stimulation. Open chest electrophysiological mapping was performed in a canine model as previously described (Arora, R. et al. Am. J. Physiol. Heart Circ. Physiol. 2008, 294, […]-[…]). […] At baseline, effective refractory periods (ERPs) were obtained at multiple sites on each plaque in the absence and presence of vagal stimulation (VS). AF inducibility was also assessed under each of these conditions i.e. with and without VS. After baseline measurements had been made, methoctramine tetrahydrochloride hydrate (20 microgram/kg), dissolved in normal saline, was administered via a single iv injection. 10-15 minutes after methoctramine administration, ERPs and AF inducibility were reassessed in the absence and presence of VS.

[3] = system: M2 versus M1 muscarinic receptor subtype; conditions: cited from earlier work
[4] = system: canines subjected to heart failure (HF); assay: Vagal stimulation induced ERP shortening in canine heart failure model (rapid ventricular pacing); format: in vivo; conditions: left atrium, in presence of AChE inhibitor, without it 10±4
Description: Effective Refractory Periods. Effective refractory periods (ERPs) were obtained from 5 distributed sites from the PV, 6 sites from the PLA, and 4 sites from the LAA during each autonomic intervention. For each ERP, the pacing protocol consisted of a drive train (S1) of eight beats with a cycle length of 400 ms followed by an extrastimulus (S2). The S2 was decremented by 10 ms until loss of capture. […] Pacing was performed at an output current twice the threshold required for consistent capture of the tissue. The mean ERP was used as the representative ERP for each of the three sites as well as the entire left atrium.
Canines were subjected to heart failure (HF) by rapid ventricular pacing (240/min for 3 weeks). Vagal stimulation induced ERP shortening (VS-ΔERP)(ms) was assessed in the test canines as well as controls at multiple sites in the LA. VS-ΔERP was reassessed in the presence of an acetylcholineesterase (AChE) inhibitor (physostigmine). Explanted LA were subjected to 1) ELISA for acetylcholinesterase (AChE) activity, 2) AChE immunostaining and 3) radioactive M2 receptor binding assay.

| SMILES | selectivity for M2 versus M3 [1] | Vagal induced AF [2] | Vagal induced ERP shortening ([2]; baseline 40 ms, p<0.01) | selectivity for M2 versus M1 [3] | Vagal stimulation induced ERP shortening (VS-ΔERP) [4] |
| --- | --- | --- | --- | --- | --- |
| Cc1ccc(O)c([C@H](CCN(C(C)C)C(C)C)c2ccccc2)c1 [tolterodine] | 1.7 fold |  |  |  |  |
| COc1ccccc1CNCCCCCCNCCCCCCCCNCCCCCCNCc1ccccc1OC [methoctramine] | 219 fold | markedly decreased | 10 ms | 35 fold |  |
| CC(C)N(CC[C@H](c1ccccc1)c1cc(CO)ccc1O)C(C)C | 2 fold |  |  |  |  |
| COc1ccncc1CN1CCC(N(CCCCCCCN2CC[C@@H](C(C(N)=O)(c3ccccc3)c3ccccc3)C2)C(C)C)CC1 [TD-6301] | 36 fold |  |  | 31 fold |  |
| CNC(=O)Oc1ccc2c(c1)[C@]1(C)CCN(C)[C@@H]1N2C [physostigmine] |  |  |  |  | 28 ± 4 ms |
| Cc1cccc(C(=O)N2CCC(N3CCC(Cc4ccc(S(=O)(=O)c5cccc(Cl)c5)cc4)CC3)CC2)c1N [Sch 211803] | 786 fold |  |  | 734 fold |  |
